Results taken from patent US20200138028A1, “MICROBIOCIDAL OXADIAZOLE DERIVATIVES” (SYNGENTA PARTICIPATIONS AG, priority 2016, published 2020).

Key:
[1] = system: Puccinia recondita f. sp. tritici; experiment: Puccinia recondita f. sp. tritici / wheat / leaf disc curative (brown rust); assay type: in vivo; conditions: foliar, 200 ppm in the applied formulation, wheat leaf segments cv. Kanzler, applied 1 day after inoculation, 6 to 8 days after application, read-out: disease control compared to untreated control leaf disks
Description: Leaf disks or leaf segments of various plant species are cut from plants grown in a greenhouse. The cut leaf disks or segments are placed in multiwell plates (24-well format) onto water agar. The leaf disks are sprayed with a test solution before (preventative) or after (curative) inoculation. Compounds to be tested are prepared as DMSO solutions (max. 10 mg/ml) which are diluted to the appropriate concentration with 0.025% Tween20 just before spraying. The inoculated leaf disks or segments are incubated under defined conditions (temperature, relative humidity, light, etc.) according to the respective test system. A single evaluation of disease level is carried out 3 to 14 days after inoculation, depending on the pathosystem. Percent disease control relative to the untreated check leaf disks or segments is then calculated.
Wheat leaf segments cv. Kanzler are placed on agar in multiwell plates (24-well format). The leaf segments are then inoculated with a spore suspension of the fungus. Plates were stored in darkness at 19° C. and 75% relative humidity. The formulated test compound diluted in water was applied 1 day after inoculation. The leaf segments were incubated at 19° C. and 75% relative humidity under a light regime of 12 hours light/12 hours darkness in a climate cabinet and the activity of a compound was assessed as percent disease control compared to untreated when an appropriate level of disease damage appears in untreated check leaf segments (6 to 8 days after application).
The following compounds at 200 ppm in the applied formulation give at least 80% disease control in this test when compared to untreated control leaf disks under the same conditions, which show extensive disease development.

[2] = system: Glomerella laqenarium (Colletotrichum laqenarium); experiment: Glomerella laqenarium (Colletotrichum laqenarium) liquid culture / cucumber / preventative (anthracnose); assay type: cell-based; conditions: 20 ppm in the applied formulation, liquid culture in PDB, 24° C., 3 to 4 days after application, read-out: disease control compared to untreated control (inhibition of growth, photometric)
Description: Mycelia fragments or conidia suspensions of a fungus prepared either freshly from liquid cultures of the fungus or from cryogenic storage, are directly mixed into nutrient broth. DMSO solutions of the test compound (max. 10 mg/ml) are diluted with 0.025% Tween20 by a factor of 50 and 10 μl of this solution is pipetted into a microtiter plate (96-well format). The nutrient broth containing the fungal spores/mycelia fragments is then added to give an end concentration of the tested compound. The test plates are incubated in the dark at 24° C. and 96% relative humidity. The inhibition of fungal growth is determined photometrically after 2 to 7 days, depending on the pathosystem, and percent antifungal activity relative to the untreated check is calculated.
Conidia of the fungus from cryogenic storage are directly mixed into nutrient broth (PDB—potato dextrose broth). After placing a (DMSO) solution of test compound into a microtiter plate (96-well format), the nutrient broth containing the fungal spores is added. The test plates are incubated at 24° C. and the inhibition of growth is measured photometrically 3 to 4 days after application.
The following compounds at 20 ppm in the applied formulation give at least 80% disease control in this test when compared to untreated control under the same conditions, which show extensive disease development.

| SMILES | melting point | pest or weed control at 200 ppm [1] | inhibition at 20 ppm [2] |
| --- | --- | --- | --- |
| Cc1cc(-c2noc(C(F)(F)F)n2)ccc1NC(=O)c1ccccc1 [Compound 1.2, N-[2-methyl-4-[5-(trifluoromethyl)-1,2,4-oxadiazol-3-yl]phenyl]benzamide] | 173 to 176 °C | – | – |
| O=C(Nc1ccc(-c2noc(C(F)(F)F)n2)cc1F)C1CC1 [Compound 1.3, N-[2-fluoro-4-[5-(trifluoromethyl)-1,2,4-oxadiazol-3-yl]phenyl]cyclopropane carboxamide] | 160 to 162 °C | ≥ 80% | ≥ 80% |
| Cc1cc(-c2noc(C(F)(F)F)n2)ccc1NC(=O)C1CCCO1 (stereo not drawn) [Compound 1.20, N-[2-methyl-4-[5-(trifluoromethyl)-1,2,4-oxadiazol-3-yl]phenyl]tetrahydrofuran-2-carboxamide] | – | ≥ 80% | ≥ 80% |
| O=C(Nc1ccc(-c2noc(C(F)(F)F)n2)cc1F)C1CC1(F)F (stereo not drawn) [Compound 1.5, 2,2-difluoro-N-[2-fluoro-4-[5-(trifluoromethyl)-1,2,4-oxadiazol-3-yl]phenyl]cyclopropane carboxamide] | – | ≥ 80% | ≥ 80% |
| O=C(Nc1ccc(-c2noc(C(F)(F)F)n2)cc1F)C1CCC1 [Compound 1.8, N-[2-fluoro-4-[5-(trifluoromethyl)-1,2,4-oxadiazol-3-yl]phenyl] cyclobutanecarboxamide] | – | – | ≥ 80% |
| Cc1cc(-c2noc(C(F)(F)F)n2)ccc1NC(=O)C1(C)CC1 [Compound 1.19, 1-methyl-N-[2-methyl-4-[5-(trifluoromethyl)-1,2,4-oxadiazol-3-yl]phenyl]cyclopropane carboxamide] | – | ≥ 80% | ≥ 80% |
| O=C(Nc1ccc(-c2noc(C(F)(F)F)n2)cc1F)C1CCCO1 (stereo not drawn) [Compound 1.11, N-[2-fluoro-4-[5-(trifluoromethyl)-1,2,4-oxadiazol-3-yl]phenyl]tetrahydrofuran-2-carboxamide] | – | – | ≥ 80% |
| Cc1cc(-c2noc(C(F)(F)F)n2)ccc1NC(=O)C1CC1 [Compound 1.1, N-[2-methyl-4-[5-(trifluoromethyl)-1,2,4-oxadiazol-3-yl]phenyl]cyclopropane carboxamide] | 185 to 196 °C | – | – |
| Cc1cc(-c2noc(C(F)(F)F)n2)ccc1NC(=O)C1CCOC1 (stereo not drawn) [Compound 1.16, N-[2-methyl-4-[5-(trifluoromethyl)-1,2,4-oxadiazol-3-yl]phenyl]tetrahydrofuran-3-carboxamide] | – | – | ≥ 80% |
| CC1CC1C(=O)Nc1ccc(-c2noc(C(F)(F)F)n2)cc1F (stereo not drawn) [Compound 1.9, N-[2-fluoro-4-[5-(trifluoromethyl)-1,2,4-oxadiazol-3-yl]phenyl]-2-methyl-cyclopropanecarboxamide] | – | – | ≥ 80% |
| N#CC1(C(=O)Nc2ccc(-c3noc(C(F)(F)F)n3)cc2F)CC1 [Compound 1.12, 1-cyano-N-[2-fluoro-4-[5-(trifluoromethyl)-1,2,4-oxadiazol-3-yl]phenyl]cyclopropane carboxamide] | – | ≥ 80% | ≥ 80% |
| CC1(C(=O)Nc2ccc(-c3noc(C(F)(F)F)n3)cc2F)CC1 [Compound 1.10, N-[2-fluoro-4-[5-(trifluoromethyl)-1,2,4-oxadiazol-3-yl]phenyl]-1-methyl-cyclopropanecarboxamide] | – | ≥ 80% | ≥ 80% |
| O=C(Nc1ccc(-c2noc(C(F)(F)F)n2)cc1F)c1ccccc1 [Compound 1.4, N-[2-fluoro-4-[5-(trifluoromethyl)-1,2,4-oxadiazol-3-yl]phenyl]benzamide] | 166 to 175 °C | – | – |
| O=C(Nc1ccc(-c2noc(C(F)(F)F)n2)cc1F)C1CCOC1 (stereo not drawn) [Compound 1.7, N-[2-fluoro-4-[5-(trifluoromethyl)-1,2,4-oxadiazol-3-yl]phenyl]tetrahydrofuran-3-carboxamide] | – | ≥ 80% | ≥ 80% |
| O=C(CC1CC1)Nc1ccc(-c2noc(C(F)(F)F)n2)cc1F [Compound 1.13, 2-cyclopropyl-N-[2-fluoro-4-[5-(trifluoromethyl)-1,2,4-oxadiazol-3-yl]phenyl]acetamide] | – | ≥ 80% | ≥ 80% |
